The source of these data is patent US20150297603A1, “HIGH DRUG LOAD TABLET FORMULATION OF [(1R), 2S]-2-AMINOPROPIONIC ACID 2-[4-(4-FLUORO-2-METHYL-1H-INDOL-5-YLOXY)-5-METHYLPYRROLO[2,1-f][1,2,4]TRIAZIN-6-YLOXY]-1-METHYLETHYL ESTER” (Bristol-Myers Squibb Company, priority 2011, published 2015).

Broadly, the pKa is the pH at which an ionisable group is half protonated.

Type in all cases: physicochemical
Series [1] can be described thus: Degradation of drug during wet granulation process. The following applies: wet granulation process (water as processing aid). The source says:
The use of wet granulation process for brivanib alaninate was not expected to be suitable because brivanib alaninate degrades by hydrolysis. Therefore, any person skilled in the art of pharmaceutical formulation would logically implement all measures to minimize the exposure of drug to water during handling, formulation, processing, and storage.
The manufacturing process of this formulation generally involves mixing the drug with dry powder excipients, such as with one or more binder, disintegrant, and filler. Water is then added to this premix while it is being continuously mixed in a mixer such as a high shear granulator. Alternatively, the binder may not be added as a dry powder to the premix, but dissolved in water. Addition of water with continuous mixing leads to the formation of granules, or granulation. The granules are then dried in dry, hot air using equipment and processes such as fluid bed drying or tray drying. Once dried, the granules may be milled using equipment such as comil or Fitzmil to reduce and/or reduce the width of distribution of particle size of granules. The granules are then mixed with extra-granular ingredients, which may include one or more of disintegrant, filler, glidant, and lubricant. The final blend is then compressed on a tablet press into core tablets. The core tablets may optionally be coated with a nonfunctional film coat.

The nature of series [2]: Stability of solid drug substance on storage. Conditions: stored at room temperature protected from moisture. From the text:
(§1) Its main degradation pathway at neutral and basic pH is hydrolysis to the parent compound, brivanib. Under acidic conditions, it can also undergo diaryl ether cleavage in solution as shown below.

A short description of series [3]: pKa of brivanib alaninate. The following applies: free base. The source says: (§2) Brivanib alaninate is an ester compound that is formulated as a free base.
A further series is described as follows: pH dependent solubility.
Text: as §2

A short description of series [4]: Stability in solution as a function of pH. The following applies: at acidic pH and at high pH.
Text: as §2, §1

`Cc1cc2c(F)c(Oc3ncnn4cc(OC[C@@H](C)OC(=O)[C@H](C)N)c(C)c34)ccc2[nH]1` [Brivanib alaninate, [(1R), 2S]-2-aminopropionic acid 2-[4-(4-fluoro-2-methyl-1H-indol-5-yloxy)-5-methylpyrrolo[2,1-f][1,2,4]triazin-6-yloxy]-1-methylethyl ester]: in series [1], the “degradation of the drug by wet granulation” value was “did not really result in significant degradation”. Further, the “stability of solid drug substance” value in series [2] is “acceptable stability”. For the same molecule, the pKa in series [3] is 6.9. For the same molecule, the solubility result was “increasing solubility” in the series “pH dependent solubility” (acidic pH); “limited solubility” in “pH dependent solubility” (neutral and basic pH). Also, the degradation entry in series [4] is listed as “degrades rapidly”.
